Reference: publication PMC12351382, “Fibrinography and thrombography (thrombodynamics-4D) in atrial fibrillation assessment of direct oral anticoagulants in geriatrics patients aged 80 years and older receiving direct oral anticoagulant therapy” (Research and Practice in Thrombosis and Haemostasis, 2025)

How the values were obtained:
fibrin clot formation [1] = experiment: Thrombodynamics-4D fibrinography in plasma samples from ADAGE patients on DOACs; type: in vivo, human
Description: (§1) ADAGE is an academic, prospective, observational multicenter study (NCT 02464488; for details, see Foulon-Pinto et al.). We recruited hospitalized patients from the university hospital’s geriatric department (Assistance Publique-Hôpitaux de Paris, Paris, France). […] The DOAC dose regimen was at the discretion of the physician. Exclusion criteria included any acute, unstable comorbid condition or an estimated life expectancy of a few weeks. Sampling (see below) and last DOAC intake times were recorded on a standardized request form. Sampling time points were at the discretion of the physicians over a period of 20 days following inclusion. Time points were classified according to the time elapsed from the last oral intake (T, hours) for patients receiving rivaroxaban. T1 to T4 corresponded to peak time (Tmax), and T20 to T24 corresponded to trough (Tmin). […] Physicians prospectively collected demographic, clinical, and laboratory data (including creatinine clearance [CrCl] calculated with the Cockcroft–Gault formula). The study was approved by the institutionnel Ethics Committee (Comité consultatif de protection des personnes pour la recherche biomédicale–Île-de-France-6–number 15.074bis). All participants gave written informed consent to participate in the study. Only patients for whom remaining plasma aliquots were available were included in the present study.
(§2) Tubes were sent to each centre’s laboratory within 2 hours after sampling and immediately double-centrifuged for 15 minutes at 2000 × g at 15 to 22 °C to obtain platelet-poor plasma. Plasma samples (500 μL aliquots) were stored at −80 °C prior to shipment on dry ice for central analysis (Haematology Laboratory, Hôpital Lariboisière). Plasma samples were thawed for 3 to 5 minutes in a 37 °C water bath just before testing.
(§3) The TD-4D assay was performed centrally using the Thrombodynamics analyzer system (Hemacore, Diapharma) with the TD-4D PLS dedicated kit (Hemacore, Diapharma). The system simultaneously measures spatiotemporal parameters of fibrin clot formation (fibrinography) and TG process (thrombography) in a thin layer of unstirred plasma. Briefly, 120 μL of platelet-poor plasma is added to a microcuvette containing corn trypsin inhibitor to prevent contribution of contact phase activation, then 5 μL of phospholipid solution (manufacturer’s reagent) is added. After incubation for 15 minutes at 37 °C in the Thrombodynamics device, the mixture is transferred to a second microcuvette containing calcium ions, and then immediately transferred to the measurement cuvette. Finally, the activator insert, whose surface is coated with immobilized tissue factor (100 pmol/m^2), is then transferred to the cuvette. The process of fibrin clot formation is recorded in a time-lapse video-microscopy mode using a dark-field light scattering method. Simultaneously, the system monitors TG by fluorimetry, based on the ability of thrombin to cleave a fluorogenic substrate, 7-amino-4-methylcoumarin (AMC) bound to a short amino acid sequence (Arg-Gly-Gly). The rate of AMC formation is proportional to local thrombin concentration. The microcuvette is maintained at 37 °C and is illuminated with red (625 nm) or ultra-violet (365 nm) light emitting diodes. Clot growth is detected with red light scattering, while AMC fluorescence is detected with UV. Scattered red light and fluorescence passing through the macro lens are recorded by a charge-coupled device system. Images under red and blue light are acquired once per minute. The whole analysis lasts 1 hour. The Thrombodynamics software (Hemacore, Diapharma) calculates parameters of spatiotemporal dynamics of fibrin clot formation and TG [40, 46]. […]

thrombin generation [2] = experiment: Thrombodynamics-4D thrombography in plasma samples from ADAGE patients on DOACs; type: in vivo, human; settings: for ETP (endogenous thrombin potential, ETP_ATG), median (IQR) / ETP (endogenous thrombin potential, ETP_ATG), range / Thrombin peak height (Cmax_ATG), median (IQR) / Thrombin peak height (Cmax_ATG), range / Thrombography Tlag (Lag_ATG), median (IQR) / Thrombography Tlag (Lag_ATG), range / Time to peak (Tmax_ATG), median (IQR) / Time to peak (Tmax_ATG), range: ADAGE patients, reduced dose (regimens as E1)
Description: as §1, §2, §3

fibrin clot formation [3] = experiment: Thrombodynamics-4D fibrinography in pooled normal plasma (Cryocheck) spiked with DOACs; type: biochemical, human; settings: 0 to 1000 nM, mainly at low DOAC concentrations
Protocol: (§4) Frozen pooled normal plasma samples (Cryocheck-Cryopep) were spiked with increasing concentrations of DOACs (0-450 ng/mL), as previously described. […] were kindly provided by Bristol Myers Squibb/Pfizer, Bayer Healthcare, and Boehringer Ingelheim, respectively.
The TD-4D assay was performed centrally using the Thrombodynamics analyzer system (Hemacore, Diapharma) with the TD-4D PLS dedicated kit (Hemacore, Diapharma). The system simultaneously measures spatiotemporal parameters of fibrin clot formation (fibrinography) and TG process (thrombography) in a thin layer of unstirred plasma. Briefly, 120 μL of platelet-poor plasma is added to a microcuvette containing corn trypsin inhibitor to prevent contribution of contact phase activation, then 5 μL of phospholipid solution (manufacturer’s reagent) is added. […] The process of fibrin clot formation is recorded in a time-lapse video-microscopy mode using a dark-field light scattering method. […] Clot growth is detected with red light scattering, while AMC fluorescence is detected with UV. Scattered red light and fluorescence passing through the macro lens are recorded by a charge-coupled device system. […]
(§5) The following fibrinography parameters were recorded (see Supplementary Table 1): (i) lag time (Tlag, minutes); (ii) initial rate of clot growth (Vi, μm/min); (iii) rate of clot growth (V, μm/min); (iv) clot size (CS, μm) measured at 30 minutes; (v) clot density (D, arbitrary units); (vi) time to spontaneous clotting (Tsp, minutes). The following thrombography parameters (at the near-activator area) were recorded (see Supplementary Table 1): (i) Tlag (minutes); (ii) time to thrombin peak (minutes); (iii) maximal thrombin concentration (ie, thrombin peak height, Cmax_ATG, AU/L); (iv) endogenous thrombin potential (ETP_ATG, AU⋅min/L); (v) stationary amplitude of moving peak of thrombin (Ast, AU/L); (vi) rate of thrombin peak propagation (μm/min; see Supplementary Videos 1–3).

[4] = Plasma DOAC concentration in ADAGE patients (chromogenic anti-FXa assay for rivaroxaban and apixaban; anti-FIIa Hemoclot assay for dabigatran); type: in vivo, human; settings: for DOAC concentration, median (IQR): ADAGE patients ≥80 y, reduced dose: rivaroxaban 15 mg once daily, apixaban 2.5 mg twice daily, dabigatran 110 mg twice daily; for DOAC concentration, range: ADAGE patients, reduced dose (regimens as E1)
Description: as §1, §2
Dedicated calibrations and controls were used. The lower limit of quantification was 20 ng/mL for the 3 assays.

thrombin generation [5] = experiment: Thrombodynamics-4D thrombography in pooled normal plasma (Cryocheck) spiked with DOACs; type: biochemical, human
Protocol: as §4
as §3, with “minute.” for “minute. The whole analysis lasts 1 hour. The Thrombodynamics software (Hemacore, Diapharma) calculates parameters of spatiotemporal dynamics of fibrin clot formation and TG [40, 46].”
as §5

[6] = Tmax (peak), ADAGE patients, reduced dose (regimens as E1)
[7] = Tmin (trough), ADAGE patients, reduced dose (regimens as E1)
[8] = all ADAGE patient samples, Spearman
[9] = univariate analysis, Tmax, line marked Halving
[10] = univariate analysis, Tmin, line marked Halving
[11] = all ADAGE patient samples, any time point and dose

DOAC concentration, median (IQR) ([4]; Tmax (peak)): 171 (123-280) ng/mL
DOAC concentration, range ([4]; Tmax (peak)): 79 to 665 ng/mL
DOAC concentration, median (IQR) ([4]; Tmin (trough)): 39 (20-70) ng/mL
DOAC concentration, range ([4]; Tmin (trough)): 20 to 106 ng/mL
DOAC plasma concentration, lower end of range [4, 11]: < 20 ng/mL
DOAC plasma concentration, upper end of range [4, 11]: 665 ng/mL
Structure (SMILES): [H]/N=C(/N)c1ccc(NCc2nc3cc(C(=O)N(CCC(=O)O)c4ccccn4)ccc3n2C)cc1 [Dabigatran]
CS (clot size at 30 minutes), median (IQR) (fibrin clot formation [1]; [6]): 1436 (1332-1583) μm
CS (clot size at 30 minutes), range (fibrin clot formation [1]; [6]): 1273-2125 μm
D (clot density), median (IQR) (fibrin clot formation [1]; [6]): 28,810 (27,570-29,170) a.u.
D (clot density), range (fibrin clot formation [1]; [6]): 22,740-29,360 a.u.
Fibrinography Tlag (lag time), median (IQR) (fibrin clot formation [1]; [6]): 1.3 (1.2-2.0) min
Fibrinography Tlag (lag time), range (fibrin clot formation [1]; [6]): 1.0 to 3.9 min
Initial rate of clot growth (Vi), median (IQR) (fibrin clot formation [1]; [6]): 60.9 (57.8-65.6) μm/min
Initial rate of clot growth (Vi), range (fibrin clot formation [1]; [6]): 54.5-74.4 μm/min
Time to Tsp (spontaneous clotting), range (fibrin clot formation [1]; [6]): 9.8 to 58.5 min
CS (clot size at 30 minutes), median (IQR) (fibrin clot formation [1]; [7]): 1707 (1634-1904) μm
CS (clot size at 30 minutes), range (fibrin clot formation [1]; [7]): 1612-2205 μm
D (clot density), median (IQR) (fibrin clot formation [1]; [7]): 32,220 (30,160-36,290) a.u.
D (clot density), range (fibrin clot formation [1]; [7]): 26,190-39,810 a.u.
Fibrinography Tlag (lag time), median (IQR) (fibrin clot formation [1]; [7]): 1.0 (0.9-1.1) min
Fibrinography Tlag (lag time), range (fibrin clot formation [1]; [7]): 0.8 to 1.3 min
Initial rate of clot growth (Vi), median (IQR) (fibrin clot formation [1]; [7]): 70.3 (66.9-75.1) μm/min
Initial rate of clot growth (Vi), range (fibrin clot formation [1]; [7]): 57.5-79.5 μm/min
Time to Tsp (spontaneous clotting), median (IQR) (fibrin clot formation [1]; [7]): 13.7 (11.0-22.2) min
Time to Tsp (spontaneous clotting), range (fibrin clot formation [1]; [7]): 7.4 to 54.6 min
Change of CS (clot size) with increasing concentrations (fibrin clot formation [1]; all ADAGE patient samples): decreased
Association of D (clot density) with DOAC concentration (fibrin clot formation [1]; [8]): significantly associated
Relationship between time to spontaneous clot formation (Tsp) and DOAC levels (fibrin clot formation [1]; [8]): significant association
Effect of DOAC concentration at Tmax (βC.pic) on fibrinography initial velocity of clot formation (fibrin clot formation [1]; [9]): ≈ 0.01723%
Effect of DOAC concentration at Tmin (βC.res) on fibrinography initial velocity of clot formation (fibrin clot formation [1]; [10]): ≈ 0.1281%
ETP (endogenous thrombin potential, ETP_ATG), median (IQR) (thrombin generation [2]; Tmax (peak)): 1036 (724-1501) AU⋅min/L
ETP (endogenous thrombin potential, ETP_ATG), range (thrombin generation [2]; Tmax (peak)): 80-2078 AU⋅min/L
Thrombin peak height (Cmax_ATG), median (IQR) (thrombin generation [2]; Tmax (peak)): 193 (98-243) AU/L
Thrombin peak height (Cmax_ATG), range (thrombin generation [2]; Tmax (peak)): 8-354 AU/L
Thrombography Tlag (Lag_ATG), median (IQR) (thrombin generation [2]; Tmax (peak)): 0.6 (0.4-0.8) min
Thrombography Tlag (Lag_ATG), range (thrombin generation [2]; Tmax (peak)): 0.2 to 1.5 min
Time to peak (Tmax_ATG), median (IQR) (thrombin generation [2]; Tmax (peak)): 2.6 (2.1-3.1) min
Time to peak (Tmax_ATG), range (thrombin generation [2]; Tmax (peak)): 1.6 to 4.6 min
ETP (endogenous thrombin potential, ETP_ATG), median (IQR) (thrombin generation [2]; Tmin (trough)): 1741 (1602-2290) AU⋅min/L
ETP (endogenous thrombin potential, ETP_ATG), range (thrombin generation [2]; Tmin (trough)): 1111-2715 AU⋅min/L
Thrombin peak height (Cmax_ATG), median (IQR) (thrombin generation [2]; Tmin (trough)): 349 (279-380) AU/L
Thrombin peak height (Cmax_ATG), range (thrombin generation [2]; Tmin (trough)): 168-499 AU/L
Thrombography Tlag (Lag_ATG), median (IQR) (thrombin generation [2]; Tmin (trough)): 0.2 (0.1-0.2) min
Thrombography Tlag (Lag_ATG), range (thrombin generation [2]; Tmin (trough)): 0.1 to 0.5 min
Time to peak (Tmax_ATG), median (IQR) (thrombin generation [2]; Tmin (trough)): 1.85 (1.6-2.1) min
Time to peak (Tmax_ATG), range (thrombin generation [2]; Tmin (trough)): 1.6 to 2.1 min
Change of ETP_ATG with increasing DOAC plasma concentrations (thrombin generation [2]; all ADAGE patient samples): decreased
Effect of DOAC concentration at Tmax (βC.pic) on thrombography peak height (PH) (thrombin generation [2]; [9]): ≈ 0.4838%
Effect of DOAC concentration at Tmin (βC.res) on thrombography peak height (PH) (thrombin generation [2]; [10]): ≈ 0.4447%
Samples in which spontaneous clotting occurred (fibrin clot formation [3]): 33%
Change of Ast (stationary amplitude of thrombin moving peak) with increasing concentrations (thrombin generation [5]): decreased
Effect on Cmax_ATG, ETP_ATG and Ast compared with the other DOACs (thrombin generation [5]): more pronounced effect
